Test results from the NIST ThermoML archive (doi:10.1021/je700260f).

Settings: Liquid, Vibrating tube method

FC(C(F)(F)F)C(F)(F)F [1,1,1,2,3,3,3-heptafluoropropane]
Settings | mass density [kg/m3]
313.14 K, 30999 kPa | 1493.6
313.14 K, 31036 kPa | 1493.7
313.14 K, 31073 kPa | 1494
313.14 K, 31110 kPa | 1494.1
313.14 K, 31162 kPa | 1494.3
313.14 K, 31193 kPa | 1494.3
313.14 K, 31225 kPa | 1494.5
313.14 K, 31252 kPa | 1494.5
313.14 K, 31284 kPa | 1494.6
313.14 K, 31324 kPa | 1494.9
313.14 K, 31355 kPa | 1494.8
313.14 K, 31397 kPa | 1495.1
313.14 K, 31585 kPa | 1495.6
313.14 K, 31617 kPa | 1495.8
313.14 K, 31653 kPa | 1495.9
313.14 K, 31696 kPa | 1495.9
313.14 K, 31739 kPa | 1496.2
313.14 K, 32132 kPa | 1497.6
313.14 K, 32203 kPa | 1497.7
313.14 K, 32369 kPa | 1498.3
313.14 K, 32414 kPa | 1498.5
313.14 K, 32447 kPa | 1498.5
313.14 K, 32485 kPa | 1498.7
313.14 K, 32523 kPa | 1498.9
313.14 K, 32566 kPa | 1499
313.14 K, 32604 kPa | 1499
313.14 K, 32652 kPa | 1499.4
313.14 K, 32736 kPa | 1499.5
313.14 K, 32789 kPa | 1499.7
313.14 K, 32821 kPa | 1500
313.14 K, 32853 kPa | 1500
313.14 K, 32900 kPa | 1500.1
313.14 K, 32937 kPa | 1500.2
313.14 K, 32975 kPa | 1500.4
313.14 K, 33013 kPa | 1500.5
313.14 K, 33094 kPa | 1500.7
313.15 K, 714 kPa | 1321.1
313.15 K, 733 kPa | 1321.4
313.15 K, 755 kPa | 1321.6
313.15 K, 777 kPa | 1321.7
313.15 K, 797 kPa | 1322.1
313.15 K, 819 kPa | 1322.3
313.15 K, 838 kPa | 1322.5
313.15 K, 871 kPa | 1322.8
313.15 K, 891 kPa | 1323.2
313.15 K, 917 kPa | 1323.3
313.15 K, 934 kPa | 1323.7
313.15 K, 963 kPa | 1323.9
313.15 K, 985 kPa | 1324
313.15 K, 1014 kPa | 1324.4
313.15 K, 1036 kPa | 1324.7
313.15 K, 1063 kPa | 1325
313.15 K, 1087 kPa | 1325.1
313.15 K, 1117 kPa | 1325.7
313.15 K, 1146 kPa | 1325.9
313.15 K, 1167 kPa | 1326.1
313.15 K, 1191 kPa | 1326.5
313.15 K, 1222 kPa | 1326.6
313.15 K, 1249 kPa | 1327
313.15 K, 1273 kPa | 1327.4
313.15 K, 1296 kPa | 1327.6
313.15 K, 1317 kPa | 1327.7
313.15 K, 1338 kPa | 1328
313.15 K, 1369 kPa | 1328.3
313.15 K, 1396 kPa | 1328.6
313.15 K, 1472 kPa | 1329.4
313.15 K, 1496 kPa | 1329.6
313.15 K, 1525 kPa | 1330
313.15 K, 1550 kPa | 1330.3
313.15 K, 1575 kPa | 1330.4
313.15 K, 1597 kPa | 1330.7
313.15 K, 1618 kPa | 1331
313.15 K, 1653 kPa | 1331.4
313.15 K, 1677 kPa | 1331.6
313.15 K, 1698 kPa | 1331.7
313.15 K, 1726 kPa | 1332.2
313.15 K, 1744 kPa | 1332.4
313.15 K, 1772 kPa | 1332.6
313.15 K, 1793 kPa | 1332.8
313.15 K, 1811 kPa | 1333
313.15 K, 1836 kPa | 1333.3
313.15 K, 1864 kPa | 1333.4
313.15 K, 1893 kPa | 1333.9
313.15 K, 1921 kPa | 1334.1
313.15 K, 1946 kPa | 1334.4
313.15 K, 1972 kPa | 1334.7
313.15 K, 1998 kPa | 1334.8
313.15 K, 2028 kPa | 1335.1
313.15 K, 2049 kPa | 1335.2
313.15 K, 2077 kPa | 1335.6
313.15 K, 2102 kPa | 1335.9
313.15 K, 2131 kPa | 1336.1
313.15 K, 2153 kPa | 1336.4
313.15 K, 2183 kPa | 1336.7
313.15 K, 2208 kPa | 1337
313.15 K, 2230 kPa | 1337.2
313.15 K, 2692 kPa | 1341.6
313.15 K, 2720 kPa | 1342
313.15 K, 2751 kPa | 1342.2
313.15 K, 2775 kPa | 1342.4
313.15 K, 2803 kPa | 1342.8
313.15 K, 2825 kPa | 1342.9
313.15 K, 2851 kPa | 1343.2
313.15 K, 2872 kPa | 1343.4
313.15 K, 2905 kPa | 1343.7
313.15 K, 2928 kPa | 1343.9
313.15 K, 2959 kPa | 1344.2
313.15 K, 2986 kPa | 1344.4
313.15 K, 3012 kPa | 1344.6
313.15 K, 3042 kPa | 1345
313.15 K, 3072 kPa | 1345.3
313.15 K, 3095 kPa | 1345.4
313.15 K, 3298 kPa | 1347.3
313.15 K, 3325 kPa | 1347.5
313.15 K, 3356 kPa | 1347.8
313.15 K, 3379 kPa | 1348
313.15 K, 3402 kPa | 1348.2
313.15 K, 3437 kPa | 1348.6
313.15 K, 3464 kPa | 1348.7
313.15 K, 3491 kPa | 1349.1
313.15 K, 3518 kPa | 1349.3
313.15 K, 3548 kPa | 1349.5
313.15 K, 3572 kPa | 1349.7
313.15 K, 3603 kPa | 1350.1
313.15 K, 3625 kPa | 1350.2
313.15 K, 3656 kPa | 1350.5
313.15 K, 3679 kPa | 1350.7
313.15 K, 3702 kPa | 1350.9
313.15 K, 3737 kPa | 1351.2
313.15 K, 3761 kPa | 1351.4
313.15 K, 3794 kPa | 1351.7
313.15 K, 3822 kPa | 1352
313.15 K, 3858 kPa | 1352.3
313.15 K, 3898 kPa | 1352.7
313.15 K, 3926 kPa | 1352.9
313.15 K, 3954 kPa | 1353.2
313.15 K, 3982 kPa | 1353.4
313.15 K, 4018 kPa | 1353.5
313.15 K, 4043 kPa | 1353.9
313.15 K, 4079 kPa | 1354.3
313.15 K, 4110 kPa | 1354.6
313.15 K, 4134 kPa | 1354.8
313.15 K, 4167 kPa | 1355
313.15 K, 4208 kPa | 1355.4
313.15 K, 4360 kPa | 1356.6
313.15 K, 4382 kPa | 1356.8
313.15 K, 4410 kPa | 1357
313.15 K, 4435 kPa | 1357.3
313.15 K, 4463 kPa | 1357.5
313.15 K, 4732 kPa | 1359.7
313.15 K, 4757 kPa | 1360
313.15 K, 4793 kPa | 1360.1
313.15 K, 4811 kPa | 1360.4
313.15 K, 4847 kPa | 1360.6
313.15 K, 4872 kPa | 1360.9
313.15 K, 4904 kPa | 1361.1
313.15 K, 4929 kPa | 1361.5
313.15 K, 4958 kPa | 1361.6
313.15 K, 4976 kPa | 1361.7
313.15 K, 5023 kPa | 1362.3
313.15 K, 5048 kPa | 1362.3
313.15 K, 5074 kPa | 1362.5
313.15 K, 5096 kPa | 1362.7
313.15 K, 5125 kPa | 1363.1
313.15 K, 5148 kPa | 1363.1
313.15 K, 5167 kPa | 1363.4
313.15 K, 5200 kPa | 1363.6
313.15 K, 5222 kPa | 1363.9
313.15 K, 5259 kPa | 1364
313.15 K, 5281 kPa | 1364.2
313.15 K, 5308 kPa | 1364.4
313.15 K, 5330 kPa | 1364.6
313.15 K, 5357 kPa | 1364.8
313.15 K, 5383 kPa | 1365.1
313.15 K, 5409 kPa | 1365.3
313.15 K, 5434 kPa | 1365.4
313.15 K, 5457 kPa | 1365.7
313.15 K, 5485 kPa | 1365.9
313.15 K, 5508 kPa | 1366.1
313.15 K, 5534 kPa | 1366.3
313.15 K, 5560 kPa | 1366.5
313.15 K, 5593 kPa | 1366.7
313.15 K, 5616 kPa | 1366.9
313.15 K, 5646 kPa | 1367.1
313.15 K, 5672 kPa | 1367.3
313.15 K, 5694 kPa | 1367.6
313.15 K, 5717 kPa | 1367.8
313.15 K, 5739 kPa | 1367.9
313.15 K, 5766 kPa | 1368
313.15 K, 5801 kPa | 1368.3
313.15 K, 5828 kPa | 1368.5
313.15 K, 5847 kPa | 1368.7
313.15 K, 5870 kPa | 1368.9
313.15 K, 5901 kPa | 1369.2
313.15 K, 5932 kPa | 1369.4
313.15 K, 5959 kPa | 1369.7
313.15 K, 5987 kPa | 1369.8
313.15 K, 6022 kPa | 1370
313.15 K, 6049 kPa | 1370.4
313.15 K, 6073 kPa | 1370.5
313.15 K, 6096 kPa | 1370.6
313.15 K, 6128 kPa | 1370.8
313.15 K, 6163 kPa | 1371.1
313.15 K, 6406 kPa | 1372.9
313.15 K, 6434 kPa | 1373
